The source of these data is US20260159497A1, “SOLID FORMS OF A COMPLEMENT FACTOR B INHIBITOR” (Novartis Pharma AG, priority 2022, published 2026).

Series [1] can be described thus: Pharmacokinetic study after oral dosing, rat. It counts as in vivo, SD Rat. Particulars: for Cmax / AUC(0-t) / concentration at 24 h: male, SD (Sprague-Dawley), rat, in vivo, po, oral, suspension in 0.5% methocel + 0.1% tween 80 in water, SD Rat male, Fed, 5 mL/kg; for AUC(0-t): read-out: AUC0-24 h; for concentration at 24 h: read-out: C24 h. On the procedure:
The pharmacokinetic profile of (S)-4-(2,2-difluoro-7-((5-methoxy-7-methyl-1H-indol-4-yl)methyl)-7-azaspiro[3.5]nonan-6-yl)benzoic acid was assessed in rats, dogs or non-human primates (NHPs) as the amorphous compound as a solution in 20% kleptose in water and as a suspension of Form A in 0.5% methocel+0.1% tween 80 in water.
Amorphous (S)-4-(2,2-difluoro-7-((5-methoxy-7-methyl-1H-indol-4-yl)methyl)-7-azaspiro[3.5]nonan-6-yl)benzoic acid was weighed into a glass vial with a magnetic stir bar to give formulations at dose concentrations of 0.1-1000 mg/kg. Approx. ⅓ the final volume of 20% kleptose (hydroxypropyl β-cyclodextrin, Aldrich, CAS #128446-35-5) in water was added to the vial (to afford either a 5 mL/kg or 10 mL/kg dose volume, depending on the species). The mixture was basified to a pH of 8.5 to 10 using dropwise addition of 2-5 M aqueous NaOH solution, with pH monitoring. The suspension was stirred, vortexed, and sonicated for 15-20 minutes to afford a homogenous mixture. The second ⅓ of the final volume of 20% kleptose was added to the vial and further stirred, vortexed, and sonicated for 15-20 minutes to afford a homogenous mixture. The pH was monitored and further pH adjustment to pH 8.5 to 10, if necessary, can be applied. The final ⅓ the final volume of 20% kleptose was added to the vial and further stirred, vortexed, and sonicated for 15-20 minutes to afford a homogenous solution. The pH of the solution was adjusted to a pH of 7.5 to 8.0 with dropwise addition of 1.0 M aqueous HCl solution with gentle stirring. The formulation should remain in solution.
Form A crystalline (S)-4-(2,2-difluoro-7-((5-methoxy-7-methyl-1H-indol-4-yl)methyl)-7-azaspiro[3.5]nonan-6-yl)benzoic acid was weighed into a glass vial with a magnetic stir bar to give formulations at dose concentrations of 0.1-1000 mg/kg. The crystalline material should preferably have a particle size with a D50 below 50 μm, and ideally with a D50 below 5 μm. The desired volume of 0.5% methocel (viscosity 400 cP, Aldrich, CAS #9004-67-5)/0.1% tween-80 (Aldrich, CAS #9005-65-6) was added (to afford a 5 mL/kg dose volume). The contents of the vial were stirred at 400-500 rpm on a stir-plate. Gentle vortex or bath sonication can be applied to break down any large clumps. The vial should be mixed well to ensure homogeneity right before animal dosing.

A further series is described as follows: Flow properties. It counts as physicochemical. From the text: See U.S. Pat. No. 11,642,315.
Setting [2] is: 30 mg/kg, 30 mg/kg, particle size D50 = 5.1 μm.
The mark [3] stands for this setting: 300 mg/kg, 300 mg/kg, particle size D50 = 5.1 μm.
The mark [4] stands for this setting: 300 mg/kg, 300 mg/kg, particle size D50 = 101 μm.

Where two headings read alike, the source gives them in different places.

Turning to `COc1cc(C)c2[nH]ccc2c1CN1CCC2(C[C@H]1c1ccc(C(=O)O)cc1)CC(F)(F)C2` [Form A, (S)-4-(2,2-difluoro-7-((5-methoxy-7-methyl-1H-indol-4-yl)methyl)-7-azaspiro[3.5]nonan-6-yl)benzoic acid], the Cmax (in general, the highest concentration seen after dosing) stood at 6.1 µM in series [1] (setting [2]), 157 µM in series [1] (setting [3]) and 80 µM in series [1] (setting [4]). The AUC(0-t) was determined as 79.2 µM·h in series [1] (setting [2]), 958 µM·h in series [1] (setting [3]) and 547 µM·h in series [1] (setting [4]). The values for the concentration at 24 h in series [1] (setting [2]), in series [1] (setting [3]) and in series [1] (setting [4]) were 1.9 µM, 3.3 µM and 2.7 µM, respectively. Besides, the “Cmax, AUC0-24 and C24h compared with the amorphous form” value in series [1] (oral dosing, smaller particle size) is on record as “higher”.

Turning to `COc1cc(C)c2[nH]ccc2c1CN1CCC2(C[C@H]1c1ccc(C(=O)O)cc1)CC(F)(F)C2.Cc1ccc(S(=O)(=O)O)cc1` [Form B, (S)-4-(2,2-difluoro-7-((5-methoxy-7-methyl-1H-indol-4-yl)methyl)-7-azaspiro[3.5]nonan-6-yl)benzoic acid p-toluene sulfonate], in the series “Flow properties”, the bulk density result was “good bulk density” and the flowability result was “good flowability”.
